The subject of data set [1] is thyro-parathyroidectomized (TPTX) rats. Put plainly: PTH-induced Hypercalcemia of Thyro-parathyroidectomized Male Rats. It counts as in vivo, rat. Particulars: for Change in Serum Calcium after 3 hours / Change in Serum Calcium after 6 hours: Table V, TPTX male rats, rPTH(1-34) 0.45 μg/kg/hr, Example 37 100 mg/kg, s.c. The source says:
Effects of Test Compounds on PTH-induced Hypercalcemia of Thyro-parathyroidectomized Male Rats. Male thyro-parathyroidectomized (TPTX) rats (Charles River) were randomly assigned to groups of 7 rats/group. […] For evaluation of prophylactic effects of a test drug, another minipump with appropriate concentration of the test drug solution was implanted subcutaneously at a site away from PTH minipump or implanted as a pellet of the test compound away from the PTH minipump. Alternatively, test drugs were administered by oral gavage as a solution or uniform suspension in an appropriate medium depending on the physical properties of the test compound. A group of 7 unimplanted TPTX rats was set aside as a normal control group.

Data set [2] has as its target T1, Vitronectin Receptor (αVβ3) (Homo sapiens, UniProt P05106+P06756).
T1 construct: expressed in transfected cells; host or cells: 512P5 cells (plasma membrane preparation)
The experiment in a line: Vitronectin Receptor (αVβ3) Binding Test Procedure. To be noted: for IC50: read-out: (αVβ3) IC50 RECEPTOR BINDING.

A further data set has as its target T2, αIIbβ3 integrin (Homo sapiens, UniProt P05106+P08514).
T2 construct: Human Platelets: Platelet-enriched plasma was obtained commercially from a donor pool; from tissue; host or cells: human platelet-rich plasma from a commercial donor pool
The experiment in a line: ADP-Induced Platelet Aggregation. It counts as cell-based. To be noted: Table VII; for IC50: ADP 20 uM, human platelets, read-out: Platelet Aggregation αIIbβ3 IC50. Put shortly:
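Pooled human PRP ([…]) preincubated with compound (1% vehicle) 5 min at 37° C with stirring, then stimulated with 20 uM ADP. Light transmittance followed 5 min against PPP reference; maximal aggregation expressed as % of vehicle control, mean ± SD.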

The subject of another data set is osteoclasts. Put plainly: Osteoclast Bone Pitting. The data set is classed as cell-based, rat. The gist of the method: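 Osteoclasts on bone slices at an acidic pH promoting resorption; slices fixed, osteoclasts counted after TRAP staining, cells stripped by sonication in 0.25M NH4OH and toluidine blue-stained pits counted manually. Block design, three replicate slices per treatment per animal; IC50 from dose-response curves.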

Another data set concerns the target T3, αVβ3 integrin (Homo sapiens, UniProt P05106+P06756).
T3 construct: αVβ3-expressing cell lines are maintained by standard tissue culture techniques; endogenous in cells; host or cells: αVβ3-expressing cell lines
Put plainly: Osteopontin-αVβ3 Cell Attachment Test Procedure. The data set is classed as cell-based. Particulars: for remaining activity at 20 µM / remaining activity at 100 µM: % of maximal attachment, read-out: (αVβ3) CELL ATTACHMENT, % @ concentration; for IC50: attachment of cells to osteopontin, read-out: (αVβ3) IC50 CELL ATTACHMENT
The gist of the method:
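Cells expressing αVβ3 (10^6 cells/mL) added with test compound to osteopontin-coated, 1% BSA-blocked wells in triplicate; 1.5 h at 25° C. Attached cells quantified by MTT dye conversion (overnight, 37° C.); optical density expressed as % of maximal attachment minus uncoated-well background, mean ±SD.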

Where [3] appears, read: % Max = percentage of the specific binding, read-out: (αVβ3) RECEPTOR BINDING, % @ concentration.
Where [4] appears, read: @200 μM, percent of maximal aggregation.

Marks after values point to notes of the source that are not given here.

What is called melting point is the temperature of the solid-liquid transition. For orientation: IC50 means the point on the concentration scale where inhibition reaches its midpoint. As usually defined, the inhibition is the drop in the measured response relative to a control, in per cent.

T2 sequence (P08514 32-887 limits assumed): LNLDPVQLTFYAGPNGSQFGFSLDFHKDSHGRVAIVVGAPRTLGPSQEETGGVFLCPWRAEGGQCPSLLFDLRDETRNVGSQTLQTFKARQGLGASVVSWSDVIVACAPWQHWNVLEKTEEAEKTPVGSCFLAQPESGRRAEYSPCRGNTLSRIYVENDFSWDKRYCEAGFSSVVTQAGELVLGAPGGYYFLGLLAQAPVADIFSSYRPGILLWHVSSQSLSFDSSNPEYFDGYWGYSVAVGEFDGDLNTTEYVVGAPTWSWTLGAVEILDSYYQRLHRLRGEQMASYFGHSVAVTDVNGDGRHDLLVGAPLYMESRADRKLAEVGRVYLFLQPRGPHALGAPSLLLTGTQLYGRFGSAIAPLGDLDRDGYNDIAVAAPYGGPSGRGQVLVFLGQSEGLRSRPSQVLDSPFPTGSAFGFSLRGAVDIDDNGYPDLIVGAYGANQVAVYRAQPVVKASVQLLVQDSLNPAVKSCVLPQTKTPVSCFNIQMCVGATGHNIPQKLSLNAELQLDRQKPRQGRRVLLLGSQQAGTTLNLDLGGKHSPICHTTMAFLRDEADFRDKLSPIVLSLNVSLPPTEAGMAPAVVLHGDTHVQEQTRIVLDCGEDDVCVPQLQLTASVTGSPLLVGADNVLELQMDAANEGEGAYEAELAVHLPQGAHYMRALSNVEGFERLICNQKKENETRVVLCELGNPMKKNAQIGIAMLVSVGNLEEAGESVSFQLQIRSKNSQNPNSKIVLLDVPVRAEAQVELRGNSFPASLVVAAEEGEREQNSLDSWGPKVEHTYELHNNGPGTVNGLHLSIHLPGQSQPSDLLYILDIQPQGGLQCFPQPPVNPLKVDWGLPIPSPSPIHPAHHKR
T2 sequence (P08514 891-1039 partner limits assumed): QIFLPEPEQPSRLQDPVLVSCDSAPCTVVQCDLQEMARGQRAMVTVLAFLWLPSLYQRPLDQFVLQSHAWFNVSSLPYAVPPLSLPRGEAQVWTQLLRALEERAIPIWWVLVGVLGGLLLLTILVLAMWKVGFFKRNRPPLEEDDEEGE
T2 sequence (P05106 27-788): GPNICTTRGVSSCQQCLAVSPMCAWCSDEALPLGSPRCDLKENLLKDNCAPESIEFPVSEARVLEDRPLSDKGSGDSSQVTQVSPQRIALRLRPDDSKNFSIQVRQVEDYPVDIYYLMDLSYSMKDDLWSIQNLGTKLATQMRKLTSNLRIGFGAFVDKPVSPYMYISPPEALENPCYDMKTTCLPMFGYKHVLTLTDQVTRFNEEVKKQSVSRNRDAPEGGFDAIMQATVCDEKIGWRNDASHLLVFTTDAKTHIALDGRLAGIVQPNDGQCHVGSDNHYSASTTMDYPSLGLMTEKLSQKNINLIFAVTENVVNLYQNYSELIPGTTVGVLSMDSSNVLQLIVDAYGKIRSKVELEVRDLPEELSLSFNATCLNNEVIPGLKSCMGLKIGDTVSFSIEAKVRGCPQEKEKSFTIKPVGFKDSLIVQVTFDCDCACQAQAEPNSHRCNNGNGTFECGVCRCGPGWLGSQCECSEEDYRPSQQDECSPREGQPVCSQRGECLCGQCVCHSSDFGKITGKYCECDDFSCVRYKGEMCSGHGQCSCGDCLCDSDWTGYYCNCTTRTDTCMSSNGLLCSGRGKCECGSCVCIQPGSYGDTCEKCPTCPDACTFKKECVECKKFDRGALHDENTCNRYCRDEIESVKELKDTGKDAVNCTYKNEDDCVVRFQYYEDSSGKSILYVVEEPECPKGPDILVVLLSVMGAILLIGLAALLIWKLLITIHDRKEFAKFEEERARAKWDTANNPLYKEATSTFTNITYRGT
T3 sequence (P06756 31-889 limits assumed): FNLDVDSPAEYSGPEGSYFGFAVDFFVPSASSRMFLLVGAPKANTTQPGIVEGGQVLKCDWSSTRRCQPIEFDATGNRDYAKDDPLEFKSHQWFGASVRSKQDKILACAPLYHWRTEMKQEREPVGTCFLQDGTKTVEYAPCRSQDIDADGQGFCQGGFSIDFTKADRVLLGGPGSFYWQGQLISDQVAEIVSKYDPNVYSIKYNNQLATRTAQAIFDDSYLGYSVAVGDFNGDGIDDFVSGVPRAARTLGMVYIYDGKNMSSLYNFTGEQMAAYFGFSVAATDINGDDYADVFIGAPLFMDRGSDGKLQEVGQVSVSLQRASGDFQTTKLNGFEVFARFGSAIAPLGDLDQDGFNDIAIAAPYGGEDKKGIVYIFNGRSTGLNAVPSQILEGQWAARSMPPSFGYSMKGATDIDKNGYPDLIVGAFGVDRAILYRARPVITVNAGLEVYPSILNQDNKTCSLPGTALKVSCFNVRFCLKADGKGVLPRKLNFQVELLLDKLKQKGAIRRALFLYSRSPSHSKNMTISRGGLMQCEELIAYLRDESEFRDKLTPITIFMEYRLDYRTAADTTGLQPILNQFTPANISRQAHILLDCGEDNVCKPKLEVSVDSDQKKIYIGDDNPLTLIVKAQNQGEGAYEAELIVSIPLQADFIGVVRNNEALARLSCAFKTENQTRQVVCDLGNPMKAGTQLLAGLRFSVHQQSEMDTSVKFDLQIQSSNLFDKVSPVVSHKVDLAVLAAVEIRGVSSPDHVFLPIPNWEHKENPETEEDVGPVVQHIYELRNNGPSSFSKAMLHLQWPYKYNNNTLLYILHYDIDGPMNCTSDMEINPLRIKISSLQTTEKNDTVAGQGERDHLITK
T3 sequence (P06756 891-1048 partner limits assumed): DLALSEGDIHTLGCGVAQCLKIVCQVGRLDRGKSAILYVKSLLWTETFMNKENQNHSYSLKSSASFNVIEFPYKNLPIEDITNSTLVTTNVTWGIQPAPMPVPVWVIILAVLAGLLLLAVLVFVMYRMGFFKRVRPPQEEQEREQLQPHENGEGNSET
T3 sequence (P05106 27-788): as the sequence (P05106 27-788) above
T1 sequence (P06756 31-889 limits assumed): as the sequence (P06756 31-889 limits assumed) above
T1 sequence (P06756 891-1048 partner limits assumed): as the sequence (P06756 891-1048 partner limits assumed) above
T1 sequence (P05106 27-788): as the sequence (P05106 27-788) above

As to Cyclo(-Arg-Gly-Asp-D-Phe-Val), in data set [1] (Table III, TPTX rat, 100 mg/kg.sc), the “Change in Serum Calcium (mg/dL)” value was −0.90 + 0.28 mg/dL. Also, the “Change in Serum Calcium after 3 hours” value in data set [1] (1st column pair) is 0.69 mg/dL; in data set [1] (2nd column pair) it was 0.58** mg/dl; in data set [1] (3rd column pair), 0.01** mg/dl; in data set [1] (4th column pair), 0.51** mg/dl. In addition, the “Change in Serum Calcium after 6 hours” value in data set [1] (1st column pair) is 1.20* mg/dl; in data set [1] (2nd column pair) it was 1.44* mg/dl; in data set [1] (3rd column pair), 0.63 mg/dL; in data set [1] (4th column pair), 1.07 mg/dL.

In turn, `N=C(N)NCCCOc1ccc2c(c1)CC(CCC(=O)O)C(=O)N2` (centres unmarked) [Example 223, 3-[6-(3-Guanidino-propoxy)-2-oxo-1,2,3,4-tetrahydro-quinolin-3-yl]-propionic Acid] came in with a melting point of 168 to 172 °C. For the same compound, the remaining activity at 30 µM in data set [2] (setting [3]) came to 100%. Further, the IC50 on αIIbβ3 integrin came out at 54 µM. Besides, in the data set on osteoclasts (Rattus norvegicus, Osteoclast, @ 226 μM), the inhibition at 226 µM is -72%. In addition, on αVβ3 integrin, the remaining activity at 20 µM came out at 104% and the remaining activity at 100 µM is 108%.

For the compound `N=C(N)NCCCOc1cccc2c1NC(=O)C(CC(=O)O)C2` (centres unmarked) [Example 234, [8-(3-Guanidino-propoxy)-2-oxo-1,2,3,4-tetrahydro-quinolin-3-yl]-acetic Acid], the melting point was 151 to 155 °C. Moreover, the remaining activity at 30 µM in data set [2] (setting [3]) is 100%. Moreover, at αIIbβ3 integrin (setting [4]), the remaining activity at 200 µM was found to be 74.3%. Further, in the data set on osteoclasts (Rattus norvegicus, Osteoclast, @ 230 μM), the inhibition at 230 µM stood at 8%. Further, the remaining activity at 100 µM on αVβ3 integrin is 85%.

Regarding `Cl.N=C(N)NCCC#Cc1ccc2c(c1)NC(=O)C(CC(=O)O)C2` (centres unmarked) [Example 100, [7-(4-Guanidino-but-1-ynyl)-2-oxo-1,2,3,4-tetrahydro-quinolin-3-yl]-acetic Acid Hydrochloride], the melting point lay within 130 to 180 °C. The remaining activity at 100 µM in data set [2] (@ 100 μM, % Max = percentage of the specific binding, read-out: (αVβ3) RECEPTOR BINDING, % @ concentration) was determined as 30.9%. Moreover, the IC50 at αIIbβ3 integrin is 216 µM. Also, the inhibition at 264 µM with osteoclasts (Rattus norvegicus, Osteoclast, @ 264 μM) was 38%. Moreover, the IC50 at αVβ3 integrin amounted to 79 µM.

The compound `Cl.N=C(N)NCCCOc1ccc2c(c1)NC(=O)C(CC(=O)O)C2` (centres unmarked) [Example 86, [7-(3-Guanidino-propoxy)-2-oxo-1,2,3,4-tetrahydro-quinolin-3-yl]-acetic Acid Hydrochloride] showed a melting point of 227 to 229 °C. For the same compound, the IC50 in data set [2] stood at 7.3 µM. For the same compound, the remaining activity at 200 µM at αIIbβ3 integrin (setting [4]) is 80.9%. In the data set with osteoclasts (Rattus norvegicus, Osteoclast, @ 280 μM), the inhibition at 280 µM was found to be 70%. Also, the IC50 on αVβ3 integrin stood at 21.1 µM.

Consider `N=C(N)NCCCOc1ccc2c(c1)N(Cc1ccccc1)C(=O)C(CC(=O)O)C2` (centres unmarked) [Example 172, [1-Benzyl-7-(3-guanidino-propoxy)-2-oxo-1,2,3,4-tetrahydro-quinolin-3-yl]-acetic Acid], for which the melting point lay within 172 to 173 °C. The IC50 in data set [2] was 2.7 µM. Also, on αIIbβ3 integrin (setting [4]), the remaining activity at 200 µM is 71.5%. The inhibition at 190 µM with osteoclasts (Rattus norvegicus, Osteoclast, @ 190 μM) was determined as 15%. In addition, the IC50 on αVβ3 integrin turned out to be 27.3 µM.

`N=C(N)NCCCCOc1ccc2c(c1)CC(CCC(=O)O)C(=O)N2` (centres unmarked) [Example 224, 3-[6-(4-Guanidino-butoxy)-2-oxo-1,2,3,4-tetrahydro-quinolin-3-yl]-propionic Acid] gave a melting point of 152 to 155 °C. In addition, the remaining activity at 30 µM in data set [2] (setting [3]) came out at 100%. For the same compound, the IC50 at αIIbβ3 integrin worked out at 53 µM. In the data set on osteoclasts (Rattus norvegicus, Osteoclast), the inhibition at 216 µM was -62%. Moreover, the remaining activity at 20 µM on αVβ3 integrin stood at 100%.

For `Cl.N=C(N)NCCCCOc1ccc2cc(CC(=O)O)c(=O)[nH]c2c1` [Example 184, [7-(4-Guanidino-butoxy)-2-oxo-1,2-dihydro-quinolin-3-yl]-acetic Acid Hydrochloride], the melting point is 216.5 to 219 °C. For the same compound, the remaining activity at 30 µM in data set [2] (setting [3]) came to 67.5%. For the same compound, the remaining activity at 200 µM on αIIbβ3 integrin (setting [4]) was 85.5%. Further, in the data set on osteoclasts (Rattus norvegicus, Osteoclast, @ 271 μM), the inhibition at 271 µM came to 37%. For the same compound, on αVβ3 integrin, the remaining activity at 20 µM was 108% and the remaining activity at 100 µM stood at 85%.

Compound `N=C(N)NCCCCOc1ccc2c(c1)NC(=O)C(CCC(=O)O)C2` (centres unmarked) [Example 232, 3-[7-(4-Guanidino-butoxy)-2-oxo-1,2,3,4-tetrahydro-quinolin-3-yl]-propionic Acid] had a melting point of 176 to 177 °C. Also, the remaining activity at 30 µM in data set [2] (setting [3]) was 75.3%. Moreover, the IC50 on αIIbβ3 integrin is 155 µM. Moreover, in the data set on osteoclasts (Rattus norvegicus, Osteoclast), the inhibition at 216 µM was -70%. Also, on αVβ3 integrin, the remaining activity at 100 µM was 97%.

In the case of `N=C(N)NCCCOc1ccc2c(c1)CCC(CC(=O)O)C2.O=C(O)C(F)(F)F` (centres unmarked) [Example 37, [6-(3-Guanidino-propoxy)-1,2,3,4-tetrahydro-napthalen-2-yl]-acetic Acid Trifluoroacetate], the figures for the IC50 (in data set [2]; on αIIbβ3 integrin; on αVβ3 integrin) were 2.9 µM, 82.4 µM and 8.9 µM, respectively. For the same compound, the “Change in Serum Calcium after 3 hours” value in data set [1] (1st column pair) was 1.72 mg/dL; in data set [1] (2nd column pair) it was 0.97 mg/dL; in data set [1] (3rd column pair), 0.95 mg/dL; in data set [1] (4th column pair), 1.31 mg/dL. Further, the “Change in Serum Calcium after 6 hours” value is 2.22 mg/dL in data set [1] (1st column pair), 2.21 mg/dL in data set [1] (2nd column pair), 1.80 mg/dL in data set [1] (3rd column pair) and 1.63 mg/dL in data set [1] (4th column pair). The “BONE PITTING INHIBITION” value with osteoclasts (@ 238 μM) is 30% @ 238.

Compound `N=C(N)NCCCCc1ccc2c(c1)NC(=O)C(CC(=O)O)C2.O=C(O)C(F)(F)F` (centres unmarked) [Example 121, [7-(4-Guanidino-butyl)-2-oxo-1,2,3,4-tetrahydro-quinolin-3-yl]-acetic Acid Trifluoroacetate] displayed a melting point of 157 to 160 °C. The IC50 in data set [2] is 2.6 µM. On αIIbβ3 integrin (setting [4]), the remaining activity at 200 µM amounted to 62%. The inhibition at 228 µM with osteoclasts (Rattus norvegicus, Osteoclast, @ 228 μM) worked out at 30%. The IC50 on αVβ3 integrin is 15.1 µM.

As to `N=C(N)NCCCOc1ccc2cc(CC(=O)O)c(=O)n(Cc3ccccc3)c2c1.O=C(O)C(F)(F)F` [Example 239, [1-Benzyl-7-(3-guanidino-propoxy)-2-oxo-1,2-dihydro-quinolin-3-yl]-acetic Acid Trifluoroacetic Acid Salt], the melting point was in the range of 132 to 134 °C. Moreover, the remaining activity at 30 µM in data set [2] (setting [3]) amounted to 70%. Further, the “Percent of Maximal” value on αIIbβ3 integrin (setting [4]) is recorded as 83.7@200%. For the same compound, the inhibition at 19.1 µM in the data set on osteoclasts (Rattus norvegicus, Osteoclast, @ 19.1 μM) is 33%. For the same compound, at αVβ3 integrin, the remaining activity at 20 µM was 99.7% and the remaining activity at 100 µM came to 67.5%.

(Values after US20030109523A1, “Bicyclic antagonists selective for the alphavbeta3 integrin” (Wyeth, priority 1999, published 2003).)
